Source: patent publication US9498451B2, “Method for treating or preventing radiation damage” (Beijing Institute of Transfusion Medicine, Academy of …, priority 2013, dated 2016)
Entries after “also recorded” stand apart in the source; their conditions may differ.

Key:
[1] = system: mice radiated by 60Co γ-ray with a lethal dosage; assay: Survival rate of mice radiated by 60Co γ ray with a lethal dosage (8.0 Gy) and injected with TA01; format: in vivo, mouse (male C57BL/6); conditions: 8.0 Gy 60Co whole body irradiation, vs control group
Experimental: 50 male C57BL/6 mice were subjected to whole body irradiation by ^60Co ray with a dosage rate of 1.56 Gy/min and an irradiation dosage of 8.0 Gy. The radiated mice were divided into 5 groups randomly, each group having 10 mice. The 5 groups were injected with TA01 with dosages of 0 mg/kg (control group), 1.25 mg/kg, 2.5 mg/kg, 5 mg/kg and 10 mg/kg, respectively. The injection was performed every three days and continued for 12 days, and the solvent of the injection was a PBS solution. Then, these mice were observed and survival rates of these mice were calculated.
FIG. 2 is a diagram showing survival rates (rates of survival) of mice radiated by ^60Co γ-ray with a lethal dosage and subcutaneously injected with different dosages of TA01.

[2] = system: mice radiated by 60Co γ-ray with a sub-lethal dosage; assay: Contents of WBC, RBC and PLT in peripheral blood of mice radiated by 60Co γ-ray with a sub-lethal dosage (6.5 Gy); format: in vivo, mouse (male C57); conditions: 2.5 mg/kg every three days for 5 times, vs PBS group
Experimental: 10 male C57 mice were subjected to whole body irradiation by ^60Co γ ray with a dosage rate of 1.56 Gy/min and an irradiation dosage of 6.5 Gy. The radiated mice were divided into 2 groups randomly, a PBS group having 5 mice and a TA01 group having 5 mice. Every mouse in the TA01 group was injected with 2.5 mg/kg (body weight) TA01 every three days for 5 times, and the solvent of the injection was a PBS solution. Every mouse in the PBS group was treated with the same process as the TA01 group, with the exception that the injection amount of TA01 was 0, in other words, only the PBS solution was injected. After different days for treating, each group of the mice was subjected to a cutting-tail process to collect 20 μL blood which was subsequently added with 2 mL blood cell dilution (commercially available from Jinan Bolai Biotechnology Co., Ltd).
FIG. 3 is diagrams showing contents of WBC, RBC and PLT in peripheral blood of mice radiated by ^60Co γ-ray with a sub-lethal dosage and injected subcutaneously with TA01 or PBS (control) at different time points.

[3] = system: hemopoietic stem/progenitor cells in bone marrow; assay: Number of hemopoietic stem/progenitor cells (CFU, CFU-G, CFU-GM, CFU-MK) in bone marrow of sub-lethally radiated mice; format: in vivo, mouse (male C57/BL6); conditions: 6.5 Gy; 2.5 mg/kg every three days; bone marrow on 7th day, 7 days culture; vs control group
Experimental: 6 male C57/BL6 mice were subjected to whole body irradiation by ^60Co γ ray with a dosage rate of 1.56 Gy/min and an irradiation dosage of 6.5 Gy. The radiated mice were divided into 2 groups randomly, a PBS group having 3 mice and a TA01 group having 3 mice. Every mouse in the TA01 group was injected with 2.5 mg/kg TA01 (body weight) every three days, the solvent of the injection was a PBS solution with pH from 7.5 to 8.5. TA01 injection dosage for the PBS group was 0, in other words, only the PBS solution was injected. On the 7th day after the subcutaneous injection, bone marrow blood was collected from each mouse into respective 10 mL tubes pretreated with heparin (commercially available from Tianjing Haoyang Biological Product Technology Limited Liability Company). After the bone marrow blood was mixed with the heparin uniformly, fresh PBS (commercially available from Hyclone Company) was added therein up to 5 mL. After mixing, a uniform mixture of blood and PBS was obtained. Mouse lymphocyte separation medium (commercially available from Tianjing Haoyang Biological Product Technology Limited Liability Company) were subjected to pre-aliquot in centrifuge tubes each having 5 mL of the lymphocyte separation medium (operating in a super clean bench). Then the uniform mixture was gently added on the top of the lymphocyte separation medium, after which a centrifuge was performed at 1500 rpm/min for 20 min. The intermediate layer of cells in a white color was sucked into a new 10 mL centrifuge tube, which was then added with PBS up to 10 mL followed by a mixing and centrifuge at 1500 rpm/min for 5 min. Then obtained upper PBS was removed, and the tube was added with fresh PBS up to 10 ml followed by a mixing and centrifuge at 1500 rpm/min for 5 min. Then the upper PBS was removed, and the tube was added with fresh PBS up to 1 mL followed by a mixing, which was then subjected to a cell number counting. After calculating the number of single nucleus per mL blood, the blood was mixed uniformly with 500 μL semisolid medium (including 0.9% methylcellulose, 15% fetal bovine serum, 100 U/ml penicillin/streptomycin, 1 mM sodium pyruvate, 2 mM glutaminate, 2 mM PFHM II, 200 m/ml transferrin, 1% BSA, 0.45 mM MTG, 30% IMDM, 50 ng/ml SCF, 10 ng/ml TPO, 10 ng/ml IL-3, 10 ng/ml IL-11, 10 ng/ml GM-CSF and 3 U/ml EPO), and cultured in an incubator containing 5% CO2 at 37° C. After 7 days, hematopoietic colony-forming unit (CFU), granulocyte colony-forming unit (CFU-G), granulocyte and macrophage colony-forming unit (CFU-GM) and megakaryocyte colony-forming unit (CFU-MK) were counted respectively, and the results were shown in FIG. 4. […]

[4] = system: mice radiated by 60Co γ-ray with a lethal dosage; assay: HE staining of intestinal, hepatic and pulmonary tissues of mice radiated by 60Co γ-ray with a lethal dosage (8.0 Gy); format: in vivo, mouse (male C57/BL6); conditions: 2.5 mg/kg every three days, vs PBS group
Experimental: 6 male C57/BL6 mice were subjected to whole body irradiation by ^60Co γ ray with a dosage rate of 1.56 Gy/min and an irradiation dosage of 8.0 Gy. The radiated mice were divided into 2 groups randomly, a PBS group (control) having 3 mice and a TA01 group having 3 mice. Every mouse in the TA01 group was injected with 2.5 mg/kg TA01 (body weight) every three days, the solvent of the injection was a PBS solution with pH of 7.4. TA01 injection dosage for the PBS group was 0, in other words, only the PBS solution was injected. The mice both two groups were sacrificed by dislocation on the 10th day and the 14th day after the irradiation, respectively. The intestinal, hepatic and pulmonary tissues were collected, fixed with 4% paraformaldehyde and formed into paraffin sections. The paraffin sections were subjected to HE staining, so as to obserse repairing conditions of the intestinal, hepatic and pulmonary tissues, and the results were shown in FIGS. 5 and 6.
FIG. 5 is diagrams showing results of hematoxylin-eosin staining with intestinal tissues of mice radiated by ^60Co γ-ray with a lethal dosage and treated with TA01 or PBS.
FIG. 6 is diagrams showing results of hematoxylin-eosin staining with hepatic and pulmonary tissue of mice radiated by ^60Co γ-ray with a lethal dosage and treated with TA01 or PBS.

In the case of `CN(C)CCN(CCN(C)C)CCN(C)C` [TA01, tris(2-(dimethylamino)ethyl)amine], the survival rate ([1]; TA01 1.25 mg/kg every three days for 5 times) is reported as “significantly increased”, the survival rate ([1]; TA01 2.5 mg/kg every three days for 5 times, 2.5 mg/kg) is reported as “significantly increased; also recorded: best survival rate” and the survival rate ([1]; TA01 5 mg/kg every three days for 5 times) is reported as “significantly increased”. The survival rate ([1]; TA01 10 mg/kg every three days for 5 times) was “significantly increased”, the “content of WBC in peripheral blood” value ([2]; on the 4th, 7th and 21st day) was “significantly increased” and the “content of PLT in peripheral blood” value ([2]; on the 4th, 14th, 21st and 28th day) was “significantly increased”. For the same compound, the “content of RBC in peripheral blood” value ([2]; on the 21st day) was “most obviously increased”, the “number of CFU-G in bone marrow” value [3] was “increased obviously” and the “number of CFU-GM in bone marrow” value [3] was “increased obviously”. For the same compound, the “number of CFU-MK in bone marrow” value [3] was “increased obviously”, the “number of total colony-forming units (CFU) in bone marrow” value [3] was “increased significantly” and the “repair of intestinal tissue (HE staining)” value ([4]; 10th and 14th day) was “improve repairs”. For the same compound, the “repair of hepatic tissue (HE staining)” value [4] was “improve repairs” and the “repair of pulmonary tissue (HE staining)” value [4] was “improve repairs”.
